Reference: patent US4857650A, “Novel renin inhibitory amino acid derivatives” (Kissei Pharmaceutical Co., Ltd., priority 1985, dated 1989)

Legend:
human renin = target: T1, human renin (Homo sapiens, UniProt P00797); assay: Human renin-sheep renin substrate reaction system in vitro; type: biochemical; settings: pH 7.4, 15 minutes at 37° C., read-out: IC50 (molar concentration)
T1 sequence (P00797 67-406): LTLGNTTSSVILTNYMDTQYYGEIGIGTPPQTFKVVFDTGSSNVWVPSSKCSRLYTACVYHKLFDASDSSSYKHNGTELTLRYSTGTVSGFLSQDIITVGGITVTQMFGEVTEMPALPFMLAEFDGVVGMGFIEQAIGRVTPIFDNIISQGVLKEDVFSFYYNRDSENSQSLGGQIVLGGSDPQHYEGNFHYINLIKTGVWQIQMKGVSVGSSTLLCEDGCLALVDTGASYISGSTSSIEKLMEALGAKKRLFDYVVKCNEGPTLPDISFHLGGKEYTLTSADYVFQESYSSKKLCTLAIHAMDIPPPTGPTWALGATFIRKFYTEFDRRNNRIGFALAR
Experimental: Human resin-sheep resin substrate reaction system in vitro To a mixture containing 200 μl of a 125 mM pyrophosphate buffer (pH 7.4), 25 μl of a 20 mM aqueous solution of […] as an angiotensin converting enzyme inhibitor, 50 μl of semipurified sheep renin substrate ([…]), 50 μl of dimethyl sulfoxide solution of an amino acid derivative of the present invention (or 50 μl of dimethyl sulfoxide as a control) and 150 μl of deionized water was added 25 μl of purified human renin (20-30 ng angiotensin I/ml/hr). The mixture was incubated for 15 minutes on a water bath at 37° C., and the reaction mixture was allowed to stand for 5 minutes on a water bath at 100° C. to stop the reaction. After cooling, 200 μl of the solution were taken up and the amount of angiotensin I produced by the addition of renin was determined by radioimmunoassay. The inhibitory effect was calculated by the following equation. [formula] The molar concentration which produced 50% inhibition (IC50) was calculated from the inhibition value obtained, and the results are shown below.

[1] = target: T2, renin in human high renin plasma (Homo sapiens, UniProt P00797); assay: Renin inhibitory effect in a human high renin plasma; type: biochemical; settings: pH 7.4, 30 minutes at 37° C., read-out: IC50 (molar concentration)
T2 construct: 500 μl of human high renin plasma; from tissue; host or cells: human high renin plasma
T2 sequence (P00797 67-406): T1 sequence (P00797 67-406)
Experimental: Renin inhibitory effect in a human high renin plasma A mixture of 350 μl of a 0.5M phosphate buffer containing 14 mM EDTA 2Na and a 0.3% neomycin sulfate, which was adjusted to the pH of 7.4, 50 μl of a 20 mM an aqueous solution of […] as an angiotensin converting enzyme inhibitor and 100 μl of dimethyl sulfoxide solution containing an amino acid compound of the present invention was added to 500 μl of human high renin plasma. […] was incubated for 30 minutes at 37° C. in a water bath. A 200 μl sample was withdrawn from the incubated mixture, chilled immediately in an ice bath, and the amount of angiotensin I produced was determined by radioimmunoassay, and remaining of the mixture (200 μ[…] 4° C. in an ice bath. The amount of angiotensin I produced in the incubated mixture at 4° C. in an ice bath was determined by radioimmunoassay. As a control, the same procedure as above was carried out by using 100 μl of dimethyl sulfoxide alone in place of the 100 μl of dimethyl sulfoxide solution containing an amino acid compound of the present invention. The inhibitory effect was calculated by the following equation. [formula] The molar concentration which produced 50% inhibition (IC50) was calculated from the inhibition value obtained, and the results are shown below.

Compound: COC(=O)CC(Cc1cccc2ccccc12)C(=O)N[C@@H](Cc1c[nH]cn1)C(=O)N[C@@H](CC(C)C)C(O)C(=O)NCCC(C)C (mixture of isomers) [(2RS,3S)-3-[3-Methoxycarbonyl-2-(1-naphthylmethyl)propionyl-L-histidyl]amino-2-hydroxy-5-methylhexanoylisoamylamide]
- IC50 (human renin): 220 nM
- IC50 [1]: 690 nM

Compound: COC(=O)CN(C)C(=O)CC(Cc1cccc2ccccc12)C(=O)N[C@@H](Cc1c[nH]cn1)C(=O)N[C@@H](CC(C)C)C(O)C(=O)NCCC(C)C (mixture of isomers) [(2RS,3S)-3-{N-[2-(1-Naphthylmethyl)-3-(N-methyl-N-methoxycarbonylmethylcarbamoyl)propionyl]-L-histidyl}amino-2-hydroxy-5-methylhexanoylisoamylamide]
- IC50 (human renin): 23 nM
- IC50 [1]: 339 nM

Compound: CC(C)C[C@H](NC(=O)[C@H](Cc1c[nH]cn1)NC(=O)C(CC(N)=O)Cc1cccc2ccccc12)C(O)C(=O)OC(C)C (mixture of isomers) [Isopropyl (2RS,3S)-3-{N-[3-(carbamoyl)-2-(1-naphthylmethyl)propionyl]-L-histidyl}amino-2-hydroxy-5-methylhexanoate]
- IC50 (human renin): 520 nM
- IC50 [1]: 490 nM

Compound: CC(C)C[C@H](NC(=O)[C@H](Cc1c[nH]cn1)NC(=O)C(CC(=O)OC(C)C)Cc1cccc2ccccc12)C(O)C(=O)OC(C)C (mixture of isomers) [Isopropyl (2RS,3S)-3-{N-[3-(isopropoxycarbonyl)-2-(1-naphthylmethyl)propionyl]-L-histidyl}amino-2-hydroxy-5-methylhexanoate]
- IC50 (human renin): 64 nM
- IC50 [1]: 160 nM

Compound: COC(=O)CNC(=O)CC(Cc1cccc2ccccc12)C(=O)N[C@@H](Cc1c[nH]cn1)C(=O)N[C@@H](CC(C)C)C(O)C(=O)OC(C)C (mixture of isomers) [Isopropyl(2RS,3S)-3-{N-[2-(1-naphthylmethyl)-3-(N-methoxycarbonylmethylcarbamoyl)propionyl]-L-histidyl}amino-2-hydroxy-5-methylhexanoate]
- IC50 (human renin): 240 nM
- IC50 [1]: 76 nM

Compound: CNC(=O)CNC(=O)CC(Cc1cccc2ccccc12)C(=O)N[C@@H](Cc1c[nH]cn1)C(=O)N[C@@H](CC(C)C)C(O)C(=O)OC(C)C (mixture of isomers) [Isopropyl(2RS,3S)-3-{N-[2-(1-naphthylmethyl)-3-(N-methylcarbamoylmethylcarbamoyl)propionyl]-L-histidyl}amino-2-hydroxy-5-methylhexanoate]
- IC50 (human renin): 620 nM
- IC50 [1]: 290 nM

Compound: CC(C)C[C@H](NC(=O)[C@H](Cc1c[nH]cn1)NC(=O)C(CC(=O)N(C)CCO)Cc1cccc2ccccc12)C(O)C(=O)OC(C)C (mixture of isomers) [Isopropyl(2RS,3S)-3-{N-{2-(1-naphthylmethyl)-3-[N-methyl-N-(2-hydroxyethyl)carbamoyl]propionyl}-L-histidyl}amino-2-hydroxy-5-methylhexanoate]
- IC50 (human renin): 41 nM
- IC50 [1]: 28 nM

Compound: COC(=O)CCN(C)C(=O)CC(Cc1cccc2ccccc12)C(=O)N[C@@H](Cc1c[nH]cn1)C(=O)N[C@@H](CC(C)C)C(O)C(=O)OC(C)C (mixture of isomers) [Isopropyl(2RS,3S)-3-{N-{2-(1-naphthylmethyl)-3-[N-methyl-N-{2-methoxycarbonylethyl)carbamoyl]propionyl}-L-histidyl}amino-2-hydroxy-5-methylhexanoate]
- IC50 (human renin): 17 nM
- IC50 [1]: 17 nM

Compound: CC(C)C[C@H](NC(=O)[C@H](Cc1c[nH]cn1)NC(=O)C(CC(=O)N(CCO)CCO)Cc1cccc2ccccc12)C(O)C(=O)OC(C)C (mixture of isomers) [Isopropyl(2RS,3S)-3-{N-{2-(1-naphthylmethyl)-3-[bis(2-hydroxyethyl)carbamoyl]propionyl}-L-histidyl}amino-2-hydroxy-5-methylhexanoate]
- IC50 (human renin): 89 nM
- IC50 [1]: 180 nM
